The values that follow come from paper PMC9311059, “P‐Glycoprotein and Breast Cancer Resistance Protein Transporter Inhibition by Cyclosporine and Quinidine on the Pharmacokinetics of Oral Rimegepant in Healthy Subjects” (Clinical Pharmacology in Drug Development, 2022).

Several values for one entry are separate records, joined by “and”; a condition that tells them apart may be missing. Equal values may be shown once. Read-outs that look alike come from different tables or passages of the source.

One series relates to P‐gp. Further details: method as in ref 7 = [7]; PMID 32058712; doi:10.1021/acs.jmedchem.9b01810; 7 Dubowchik GM , Conway CM , Xin AW . Blocking the CGRP pathway for acute and preventive treatment of migraine: the evolution of success . J Med Chem . 2020; 63 ( 13 ): 6600 ‐ 6623 . 32058712 10.1021. The note with it: in vitro; cited from earlier work.
On the set-up of series [1]: method as in unpublished. The note with it: rimegepant 75 mg with itraconazole 200 mg once daily for 7 consecutive days, healthy adults; ref unpublished; cited from earlier work.
Series [2] is described as follows: Part 2: pharmacokinetics of rimegepant 75 mg ODT alone or coadministered with quinidine 600 mg, 2-way crossover. Type of series: in vivo, human. The note with it: for AUC / Cmax: po, 75 mg; for Tmax: read-out: tmax, median (range). The method, then:
This phase 1, open‐label, randomized, single‐dose, 2‐way crossover, 2‐part, drug‐drug interaction study was conducted at a single center (Syneos Health, Québec, Canada). Subjects were screened within 28 days preceding administration of study medication. In part 1, fasted subjects were randomly assigned to a single dose of rimegepant 75 mg ODT or a single dose of rimegepant 75 mg ODT coadministered with cyclosporine 200 mg (2 × 100‐mg capsules). […] Following the completion of part 1, an interim PK analysis and review of data were performed. […] In part 2, fasted subjects were randomly assigned to a single dose of rimegepant 75 mg ODT or a single dose of rimegepant 75 mg ODT coadministered with quinidine 600 mg (2 × 300‐mg tablets).
In part 1, subjects received 1 of the following treatments under fasting conditions: 1 oral dose of rimegepant 75 mg ODT (Catalent Pharma Solutions, Swindon, UK) or 1 oral dose of rimegepant 75 mg ODT coadministered with cyclosporine 200 mg (Novartis Pharmaceuticals Canada Inc., Dorval, Quebec, Canada). In part 2, subjects received 1 of the following treatments under fasting conditions: 1 oral dose of rimegepant 75 mg ODT alone or 1 oral dose of rimegepant 75 mg ODT coadministered with quinidine 600 mg (Sandoz Inc., West Princeton, New Jersey). In parts 1 and 2, the interval between treatments could not exceed 2 minutes.
For each treatment, subjects were confined from the morning of day −1 until after the 24‐hour postdose blood draw on day 2. Subjects returned for all subsequent blood draws. No food was allowed from at least 10 hours before dosing until at least 4 hours after dosing. Meals were standardized and similar in composition between periods. Except for water given with cyclosporine and quinidine, no fluids were allowed from 1 hour before dosing until 1 hour after dosing. Water was provided ad libitum at all other times. […] When appropriate, subjects were accompanied by a staff member while walking.
In each period, 20 blood samples for PK assessment were collected at the following time points: before dosing; 5, 10, 20, 30, 40, and 50 minutes after dosing; and 1, 1.5, 2, 2.5, 3, 4, 5, 6, 8, 12, 24 (day 2), 48 (day 3), and 72 (day 4) hours after dosing. […] Plasma samples were assayed for rimegepant using ultra‐performance liquid chromatography with tandem mass spectrometry detection (LC‐MS/MS). The quantifiable range was 10 to 5000 ng/mL. Plasma samples containing human ethylenediaminetetraacetic acid (EDTA) K2 plasma as an anticoagulant were processed using automated protein precipitation before LC‐MS/MS analysis. The internal standard was rimegepant‐^13C2d4. The validation was performed using an API 5000 LC/MS/MS system with Analyst software, version 1.6.3 (SCIEX, Framingham, Massachusetts). The pump flow was isocratic, with a flow rate set at 0.600 mL/min. The column was an Acquity UPLC BEH C18, 50×2.1 mm, 1.7 μm (Waters Corporation, Framingham, Massachusetts), which was maintained at a temperature of 60°C and contained Milli‐Q type water/acetonitrile with ammonium acetate and acetic acid. […] Incurred sample reanalysis was carried out on ≈10% of randomly selected samples.
The effects of cyclosporine (part 1) or quinidine (part 2) on the single‐dose PK of rimegepant were evaluated using general linear model procedures in SAS (SAS Institute, Cary, North Carolina). In these evaluations, analysis of variance (ANOVA) model was performed on untransformed tmax, terminal elimination rate constant, and t1/2el and on log‐transformed AUC0‐t, AUC0‐inf, and Cmax at the alpha level of .05. The model included treatment, sequence, and period as fixed effects, and subject nested within sequence as a random effect. Intra‐ and intersubject coefficient of variation were estimated.

On the set-up of series [3]: method as in PMID 23965396. The following applies: single and 2‐week multiple daily oral doses up to 600 mg; cited from earlier work.
Another series deals with CYP2C9. Details: method as in ref 7 = [7]; PMID 32058712; doi:10.1021/acs.jmedchem.9b01810; 7 Dubowchik GM , Conway CM , Xin AW . Blocking the CGRP pathway for acute and preventive treatment of migraine: the evolution of success . J Med Chem . 2020; 63 ( 13 ): 6600 ‐ 6623 . 32058712 10.1021. The following applies: implicated in vitro; CYP2C9 allelic variation without significant influence; cited from earlier work.

The test system of series [4] is organic anion transporting polypeptide 1B3. Details: method as in ref 7 = [7]; PMID 32058712; doi:10.1021/acs.jmedchem.9b01810; 7 Dubowchik GM , Conway CM , Xin AW . Blocking the CGRP pathway for acute and preventive treatment of migraine: the evolution of success . J Med Chem . 2020; 63 ( 13 ): 6600 ‐ 6623 . 32058712 10.1021. The note with it: in vitro; cited from earlier work.

The mark [5] stands for this setting: by quinidine 600 mg, single dose rimegepant 75 mg ODT, vs rimegepant alone.
Where [6] appears, read: coadministration with quinidine 600 mg, rimegepant 75 mg.

Turning to `N[C@@H]1c2cccnc2[C@H](OC(=O)N2CCC(n3c(=O)[nH]c4ncccc43)CC2)CC[C@H]1c1cccc(F)c1F` [Rimegepant], in the series with P‐gp, the “substrate of P‐gp transporter” value was “substrate”. Further, the “increase in rimegepant AUC” value in series [1] is listed as 400%. Moreover, the “increase in rimegepant Cmax” value in series [1] was 40%; in series [2] (setting [5]) it was 66.9% and 67%. Further, the “increase in rimegepant AUC0‐inf” value in series [2] (setting [5]) is 54.8% and 55%. Besides, the “rimegepant AUC0‐inf geometric mean ratio (90% CI) versus rimegepant alone” value in series [2] (setting [6]) is listed as 1.55 (1.40‐1.72). Besides, the “rimegepant Cmax geometric mean ratio (90% CI) versus rimegepant alone” value in series [2] (setting [6]) is reported as 1.67 (1.46‐1.91). The AUC in series [2] (human, plasma, part 2, rimegepant 75 mg ODT alone, single oral dose, fasted, plasma, N = 12, read-out: AUC0‐inf, geometric least squares mean) was determined as 4410 ng·h/mL; in series [2] (human, plasma, part 2, rimegepant 75 mg ODT alone, single oral dose, fasted, plasma, N = 12, read-out: AUC0‐t, geometric least squares mean), 4400 ng·h/mL; in series [2] (human, plasma, part 2, rimegepant ODT 75 mg alone, single oral dose, N 12, read-out: AUC0‐inf, arithmetic mean (percent coefficient of variation)), 4540 ng·h/mL; in series [2] (human, plasma, part 2, rimegepant ODT 75 mg alone, single oral dose, N 12, read-out: AUC0‐t, arithmetic mean (percent coefficient of variation)), 4520 ng·h/mL. The highest concentration (Cmax) in series [2] (human, plasma, part 2, rimegepant 75 mg ODT alone, single oral dose, fasted, plasma, N = 12, read-out: Cmax, geometric least squares mean) was 797 ng/mL; in series [2] (human, plasma, part 2, rimegepant ODT 75 mg alone, single oral dose, N 12, read-out: Cmax, arithmetic mean (percent coefficient of variation)) it was 829 ng/mL. Moreover, the Tmax in series [2] (human, plasma, part 2, rimegepant ODT 75 mg alone, single oral dose, N 12) stood at 1.5 h; in series [2] (human, plasma, part 2, rimegepant ODT 75 mg coadministered with quinidine 600 mg, single oral dose, N 12) it was 2.8 h. Besides, the half-life in series [2] (human, plasma, part 2, rimegepant ODT 75 mg alone, single oral dose, N 12, read-out: t½el, arithmetic mean (percent coefficient of variation) (converted)) is 8.56 h. The “CL/F, arithmetic mean (percent coefficient of variation)” value in series [2] (part 2, rimegepant ODT 75 mg alone, single oral dose, N 12) is listed as 17.39 (24.68) L/h. In addition, the “difference in geometric mean t1/2el between treatments” value in series [2] (part 2, rimegepant with quinidine vs rimegepant alone) is on record as no more than 20%. For the same compound, the tolerability result in series [3] is “well tolerated”. Moreover, the “role of CYP2C9 in metabolism” value in the series with CYP2C9 was “not to be a significant mediator of metabolism in vivo”. For the same compound, in series [4], the “substrate of organic anion transporting polypeptide 1B3” value is recorded as “not a substrate”.

By Cmax is commonly meant the highest concentration seen after dosing. As usually defined, the Tmax is the time at which the peak concentration occurs.
